Measured values as given in patent publication US10597388B2, “Pyridazinone herbicides” (FMC CORPORATION, priority 2014, dated 2020).

Assays:
Format in all cases: in vivo
[1] = test system: galium (catchweed bedstraw, Galium aparine); assay: Test A greenhouse herbicide test, postemergence
Method in brief: (§1)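 Pot-grown plants (loam soil/sand blend), 2–10 cm tall at the one- to two-leaf stage, received postemergence sprays of formulated test chemical. After about 10 d in the greenhouse, injury was rated visually against untreated controls on a 0 (no effect) to 100 (complete control) scale.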

[2] = test system: blackgrass (Alopecurus myosuroides); assay: Test A greenhouse herbicide test, postemergence
Method in brief: as §1

[3] = test system: ragweed (common ragweed, Ambrosia elatior); assay: Test C greenhouse herbicide test, pre- and postemergence
Method in brief: (§2)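 Seeds sown in loam–sand blend treated preemergence; plants in peat-based medium sprayed postemergence at 2–18 cm (1- to 4-leaf stage); chemicals in non-phytotoxic solvent with surfactant. Greenhouse 13–15 d, then visual rating versus controls on 0–100 scale (0 no effect, 100 complete control).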

[4] = test system: ryegrass, Italian (Italian ryegrass, Lolium multiflorum); assay: as above
Method in brief: as §2

[5] = test system: morningglory (Ipomoea coccinea); assay: as above
Method in brief: as §2

[6] = test system: foxtail, giant (giant foxtail, Setaria faberii); assay: as above
Method in brief: as §2

[7] = test system: galium (catchweed bedstraw, Galium aparine); assay: as above
Method in brief: as §2

[8] = test system: oilseed rape (Brassica napus); assay: as above
Method in brief: as §2

[9] = test system: wheat (winter wheat, Triticum aestivum); assay: as above
Method in brief: as §2

[10] = test system: crabgrass, large (large crabgrass, Digitaria sanguinalis); assay: as above
Method in brief: as §2

[11] = test system: barnyardgrass (Echinochloa crus-galli); assay: as above
Method in brief: as §2

[12] = test system: lambsquarters (Chenopodium album); assay: as above
Method in brief: as §2

[13] = test system: johnsongrass (Sorghum halepense); assay: as above
Method in brief: as §2

[14] = 125 g ai/ha, 0 to 100 scale where 0 is no effect and 100 is complete control
[15] = 500 g ai/ha, visual rating after approx. 10 d, 0 to 100 scale (0 no effect, 100 complete control)
[16] = Postemergence, 31 g ai/ha, scale 0 to 100 (0 no effect, 100 complete control)
[17] = Postemergence, 62 g ai/ha, 0 to 100 scale (0 no effect, 100 complete control)
[18] = Postemergence, 250 g ai/ha, scale 0 to 100, 0 no effect, 100 complete control, 13 to 15 d
[19] = Preemergence, 31 g ai/ha, scale 0 to 100, 0 is no effect, 100 is complete control
[20] = Preemergence, 62 g ai/ha, scale 0 to 100, 0 is no effect, 100 is complete control
[21] = Preemergence, 125 g ai/ha, scale 0 to 100, 0 is no effect, 100 is complete control
[22] = Preemergence, 250 g ai/ha, scale 0 to 100, 0 no effect, 100 complete control
[23] = postemergence, 125 g ai/ha, scale 0 to 100, 0 no effect, 100 complete control

CCC(=O)Oc1c(C)nn(C)c(=O)c1-c1ccc(Br)c2ccccc12 [Compound 134]
15: Ryegrass, Italian plant response rating [4, 17] | Plant response rating, Foxtail, Giant [6, 16] | Plant response rating, Wheat [9, 21] | Crabgrass, Large plant response rating [10, 23]
45: Plant response rating, Foxtail, Giant [6, 18]
98: Ragweed plant response rating [3, 22] | Plant response rating, Ryegrass, Italian [4, 19] | Plant response rating, Morningglory [5, 16] | Plant response rating, Galium [7, 20] | Plant response rating, Galium [7, 21] | Galium plant response rating [7, 22] | Oilseed Rape plant response rating [8, 22] | Lambsquarters plant response rating [12, 17]
55: Plant response rating, Oilseed Rape [8, 19] | Plant response rating, Barnyardgrass [11, 18]
25: Foxtail, Giant plant response rating [6, 17] | Plant response rating, Foxtail, Giant [6, 19] | Plant response rating, Johnsongrass [13, 18]
30: Plant response rating, Ragweed [3, 18] | Plant response rating, Wheat [9, 16] | Plant response rating, Crabgrass, Large [10, 20]
75: Plant response rating, Morningglory [5, 19] | Plant response rating, Foxtail, Giant [6, 20] | Plant response rating, Lambsquarters [12, 19]
60: Plant response rating, Blackgrass [2, 14] | Crabgrass, Large plant response rating [10, 22]
70: Plant response rating, Blackgrass [2, 15] | Plant response rating, Ragweed [3, 19] | Plant response rating, Foxtail, Giant [6, 21] | Plant response rating, Barnyardgrass [11, 21]
20: Ryegrass, Italian plant response rating [4, 23] | Barnyardgrass plant response rating [11, 17]
80: Foxtail, Giant plant response rating [6, 22]
5: Ragweed plant response rating [3, 17] | Ragweed plant response rating [3, 23] | Plant response rating, Ryegrass, Italian [4, 16] | Plant response rating, Crabgrass, Large [10, 16] | Plant response rating, Crabgrass, Large [10, 19] | Plant response rating, Barnyardgrass [11, 19] | Plant response rating, Johnsongrass [13, 20] | Plant response rating, Johnsongrass [13, 21] | Johnsongrass plant response rating [13, 22] | Johnsongrass plant response rating [13, 23]
35: Foxtail, Giant plant response rating [6, 23]
40: Plant response rating, Ryegrass, Italian [4, 18] | Wheat plant response rating [9, 22] | Plant response rating, Crabgrass, Large [10, 18] | Plant response rating, Crabgrass, Large [10, 21] | Plant response rating, Barnyardgrass ([11]; Postemergence, 125 g ai/ha, scale 0 to 100, 0 is no effect, 100 is complete control) | Plant response rating, Barnyardgrass [11, 20]
50: Wheat plant response rating [9, 17]
10: Crabgrass, Large plant response rating [10, 17] | Plant response rating, Barnyardgrass [11, 16] | Plant response rating, Johnsongrass [13, 16] | Johnsongrass plant response rating [13, 17]
95: Plant response rating, Ragweed [3, 20] | Plant response rating, Ragweed [3, 21] | Plant response rating, Morningglory [5, 21] | Plant response rating, Galium [7, 16] | Galium plant response rating [7, 17] | Plant response rating, Oilseed Rape [8, 16]
0: Plant response rating, Ragweed [3, 16] | Plant response rating, Wheat [9, 19] | Plant response rating, Wheat [9, 20] | Plant response rating, Johnsongrass [13, 19]
100: Plant response rating, Galium [1, 14] | Plant response rating, Galium [1, 15] | Plant response rating, Ryegrass, Italian [4, 20] | Plant response rating, Ryegrass, Italian [4, 21] | Ryegrass, Italian plant response rating [4, 22] | Morningglory plant response rating [5, 17] | Plant response rating, Morningglory [5, 18] | Morningglory plant response rating [5, 22] | Morningglory plant response rating [5, 23] | Plant response rating, Galium [7, 18] | Plant response rating, Galium [7, 19] | Galium plant response rating [7, 23] | Oilseed Rape plant response rating [8, 17] | Plant response rating, Oilseed Rape [8, 18] | Oilseed Rape plant response rating [8, 23] | Plant response rating, Lambsquarters [12, 16] | Plant response rating, Lambsquarters [12, 18] | Plant response rating, Lambsquarters [12, 21] | Lambsquarters plant response rating [12, 22] | Lambsquarters plant response rating [12, 23]
90: Plant response rating, Morningglory [5, 20] | Plant response rating, Oilseed Rape [8, 20] | Plant response rating, Oilseed Rape [8, 21] | Plant response rating, Wheat [9, 18] | Barnyardgrass plant response rating [11, 22] | Plant response rating, Lambsquarters [12, 20]
65: Wheat plant response rating [9, 23]
